The record followed here is patent US11077159B2, “Compositions from halophyte plants and methods of use thereof” (KHALIFA UNIVERSITY OF SCIENCE AND TECHNOLOGY, priority 2017, dated 2021).

Several values for one entry are separate records, joined by “and”; a condition that tells them apart may be missing. Equal entries are not always repeated.

Assay [1] concerns matrix metalloproteinase-1 (MMP-1) release. Description: MMP-1 release by aged fibroblasts (ELISA), anti-aging. The assay is classed as cell-based, human. To be noted: 10^−7M. From the text: […] The matrix metalloproteinase-1 (MMP-1) assay using a specific ELISA kit was used to evaluate anti-aging properties. The migration/proliferation of NHEK using kinetic image analysis of the wound recovery was used to evaluate cell renewal properties. The IL-8 release on NHEK stimulated by PMA using a specific ELISA kit was used to evaluate anti-inflammatory properties.
A general note: In an ELISA, binding on a coated surface is turned into a signal by an enzyme label.

A short description of assay [2]: DPPH free radical scavenging (antioxidant) assay. Format: biochemical. To be noted: positive control, 0.3 mg/mL; ± standard error. As to the method:
Two controls were used in the DPPH assay; a negative control containing all reagents except for the test extract, and a positive control using a final concentration of 0.33 mg/mL L-ascorbic acid as antioxidant instead of test extract. Radical scavenging activity was calculated as follows: Scavenging activity (%)=[(Acontrol−Atest)/[…]]*100 Where Acontrol is the negative control (without test extract), and Atest is the absorbance with the botanical extract. All analysis were carried out in triplicate.

A further assay concerns Hyaluronic acid. Put plainly: Hyaluronic acid synthesis. To be noted: 10^−7M. Format: cell-based.
Another assay relates to IL-8 release of NHEK. Description: IL-8 release of NHEK stimulated by PMA (ELISA), anti-inflammatory. Conditions: 10^−9M. The assay is classed as cell-based, human. From the text: The matrix metalloproteinase-1 (MMP-1) assay using a specific ELISA kit was used to evaluate anti-aging properties. The migration/proliferation of NHEK using kinetic image analysis of the wound recovery was used to evaluate cell renewal properties. The IL-8 release on NHEK stimulated by PMA using a specific ELISA kit was used to evaluate anti-inflammatory properties.

Assay [3] can be described thus: Scavenging of reactive oxygen species. Conditions: control reference, concentration not given.

What is called inhibition is the drop in the measured response relative to a control, in per cent. Read a high inhibition as a response far below the control. As to `C[C@@H]1C[C@H]2[C@@H]3CCC4=CC(=O)C=C[C@]4(C)[C@@]3(F)[C@@H](O)C[C@]2(C)[C@@]1(O)C(=O)CO` [Dexamethasone], the “MMP-1 % Control (P17-F)” value in assay [1] stood at 58%. This compound gave an inhibition at 0.1 µM in assay [1] (Homo sapiens, Fibroblast) of 42%. Further, the “MMP-1 (ng/ml) dilution factor adjusted” value in assay [1] (P17-F aged fibroblasts, single replicate) was 8.7 ng/mL and 8.2 ng/mL and 8.5 ng/mL. The “MMP-1 Mean” value in assay [1] (P17-F) came out at 8.5 ng/mL.

In assay [2], `O=C1O[C@H]([C@@H](O)CO)C(O)=C1O` [L-ascorbic acid] registered a DPPH scavenging activity of 95.79±0.17%.

`CC1=C(/C=C/C(C)=C/C=C/C(C)=C/C(=O)O)C(C)(C)CCC1` [Retinoic acid]: in the assay with Hyaluronic acid, the “Hyaluronic acid % Control” value was determined as 241%, the “Hyaluronic acid % Stimulation” value came out at 141% and the “Hyaluronic acid Mean” value turned out to be 655.7 ng/mL. Moreover, in the assay with Hyaluronic acid (single replicate), the “Hyaluronic acid (ng/ml) dilution factor adjusted” value is 677.2 ng/mL and 632.1 ng/mL and 657.9 ng/mL.

For the compound `CN[C@@H]1C[C@H]2O[C@@](C)([C@@H]1OC)n1c3ccccc3c3c4c(c5c6ccccc6n2c5c31)C(=O)NC4` [Staurosporine], the “IL-8 % Stimulated control” value in the assay on IL-8 release of NHEK is 54%. Besides, the “IL-8 Mean” value in the assay on IL-8 release of NHEK (PMA 0.1 μg/ml) worked out at 1685 pg/mL. In addition, the “IL-8 (pg/ml) dilution factor adjusted” value in the assay on IL-8 release of NHEK (PMA 0.1 μg/ml, non-diluted sample, single replicate) was 1579 pg/mL and 1809 pg/mL and 1668 pg/mL.

Take Vitamin-E: in assay [3], the ROS scavenged was determined as 92%.
